Key:
human CK1 delta = target: T1, human CK1 delta (Homo sapiens, UniProt P48730); test: FRET fluorescence test (Z'Lyte kinase assay Kit), peptide substrate SER/THR 11; type: biochemical; details: peptide substrate 2 μM, ATP at 4 times the KM
T1 construct: purchased Invitrogen Corporation PV3665
From the text: The capacity of the compounds of the invention to inhibit the phosphorylation of casein by casein kinase 1 epsilon and delta may be evaluated using a FRET (“Fluorescence Resonance Energy Transfer) fluorescence test with the aid of the “Z'Lyte™ kinase assay Kit” (reference PV3670; Invitrogen Corporation™) according to the manufacturer's instructions.
The casein kinases 1 used are obtained from Invitrogen Corporation (human CK1 epsilon PV3500 and human CK1 delta PV3665).
A peptide substrate, labelled at both ends with a fluorophor donor group (coumarin) and a fluorophor acceptor group (fluorescein) constituting a FRET system is phosphorylated in the presence of ATP by casein kinase 1 epsilon or delta in the presence of increasing concentrations of compounds of the invention.
The mixture is treated with a site-specific protease that specifically cleaves the peptide substrate to form two fluorescent fragments having a large fluorescence emission ratio.
The fluorescence observed is thus related to the capacity of the products of the invention to inhibit the phosphorylation of the peptide substrate by casein kinase 1 epsilon or casein kinase 1 delta.
The compounds of the invention are dissolved at different concentrations starting with a 10 mM stock solution in DMSO diluted in a buffer containing 50 mM HEPS, pH 7.5, 1 m MEGTA, 0.01% Brij-35, 10 mM MgCl2 for casein kinase 1 epsilon and supplemented with Trizma Base (50 mM), pH 8.0, and NaN3 (0.01% final) for casein kinase 1 delta.
The phosphorylation of the peptide substrate SER/THR 11 obtained from Invitrogen Corporation™ is performed at a final concentration of 2 μM. The ATP concentration is 4 times the KM, this value being 2 μM for casein kinase 1 epsilon and 4 μM for casein kinase 1 delta.
The emitted fluorescence is measured at wavelengths of 445 and 520 nm (excitation at 400 nm).

[1] = system: Mper1-luc Rat-1 (P2C4) fibroblasts; test: Circadian cell assay (mPer1-luciferase reporter, period prolongation); type: cell-based; details: effective concentration that induced a 1-hour prolongation of the circadian period, interpolated from hyperbolic curve
Procedure: Experimental Protocols for Circadian Cell Assay
Mper1-luc Rat-1 (P2C4) fibroblast cultures were prepared by dividing the cultures every 3-4 days (approximately 10-20% of confluence) on 150 cm^2 degassed polystyrene tissue culture flasks (Falcon® #35-5001) and maintained in growth medium [EMEM (Celigro #10-010-CV); 10% foetal bovine serum (FBS; Gibco #16000-044); and 50 I.U./ml of penicillin-streptomycin (Celigro #30-001-CI)] at 37° C. and under 5% CO2.
Cells obtained from Rat-1 fibroblast cultures at 30-50% of confluence as described above were co-transfected with vectors containing the selection marker for resistance to zeocin for a stable transfection and a luciferase reporter gene controlled by the mPer-1 promoter. After 24 to 48 hours, the cultures were divided on 96-well plates and maintained in growth medium supplemented with 50-100 μg/ml of zeocin (Invitrogen® #45-0430) for 10-14 days. The zeocin-resistant stable transfectants were evaluated for the expression of the reporter by adding 100 μM luciferin (Promega® #E1603®) to the growth medium and by assaying the luciferase activity on a TopCount scintillation counter (Packard Model #C384V00). The Rat-1 cell clones expressing both zeocin resistance and lucerifase activity controlled by mPer1 were serum-shock synchronized with 50% horse serum [HS (Gibco® #16050-122)] and the activity of the circadian reporter was evaluated. The P2C4 clone of Mper1-luc Rat-1 fibroblasts was selected to test the compound. Mper1-luc Rat-1 ([…]) fibroblasts at 40-50% of confluence, obtained according to the protocol described above, were plated out onto 96-well opaque tissue culture plates (Perkin Elmer® #6005680). […]
The period analysis was performed either by determining the interval between the relative light emission minima over several days or by Fourier transform. […] The data were analysed by adjusting a hyperbolic curve to the data expressed as change of period (y-axis) as a function of the concentration of the test compound (x-axis) in the XLfit™ software and the CE Delta (t+1 h) was interpolated from this curve.

T1 sequence (P48730 whole entry): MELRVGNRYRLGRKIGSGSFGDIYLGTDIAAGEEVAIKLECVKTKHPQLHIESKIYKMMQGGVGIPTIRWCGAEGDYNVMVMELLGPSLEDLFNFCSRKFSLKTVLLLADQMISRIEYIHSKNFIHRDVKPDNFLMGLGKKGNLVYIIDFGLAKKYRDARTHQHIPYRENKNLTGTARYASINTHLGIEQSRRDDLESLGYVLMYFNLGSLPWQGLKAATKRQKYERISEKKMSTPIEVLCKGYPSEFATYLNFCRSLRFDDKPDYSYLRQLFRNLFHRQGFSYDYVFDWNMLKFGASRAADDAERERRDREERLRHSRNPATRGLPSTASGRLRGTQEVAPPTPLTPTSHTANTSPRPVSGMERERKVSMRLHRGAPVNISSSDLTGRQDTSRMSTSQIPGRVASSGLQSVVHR

In the case of `Fc1ccc(-c2nc3ccc(N4CCC(N5CCCC5)CC4)nn3c2-c2ccnc3[nH]ccc23)cc1` [Compound 36, 2-(4-Fluorophenyl)-6-(4-pyrrolidin-1-ylpiperidin-1-yl)-3-(1H-pyrrolo[2,3-b]pyridin-4-yl)imidazo[1,2-b]pyridazine], the IC50 (human CK1 delta) is reported as 19 nM and the “CE Delta (t + 1 h)” value [1] is reported as 1 to 7 nM.

Reference: patent US8546395B2, “6-cycloamino-3-(1H-pyrrolo[2,3-b]pyridin-4-yl)imidazo[1,2-b]pyridazine derivatives, preparation thereof and therapeutic use thereof” (Sanofi, priority 2008, dated 2013)
